Reference: patent publication US6995136B1, “Peptide fragments of murine epidermal growth factor as laminin receptor targets” (The Queen's University of Belfast, priority 1998, dated 2006)
Non-standard residues stand in square brackets, D forms with d. Residues, ends and D or L forms follow the SMILES beside them. No end group written: not given here. *: point of attachment. Tic‑OH = tetrahydroisoquinoline-3-carboxylic acid (hydroxy-substituted), constrained Tyr mimetic; Cit = NC(=O)NCCC[C@H](N)C(=O)O; Acm = CC(=O)NC*

Legend:
trypsin-like proteases = experiment: Resistance to trypsin degradation; assay type: in vitro ADME
[1] = target: T1, 67 kDa laminin receptor (67-LR) (Homo sapiens, UniProt P08865); experiment: 125I-laminin displacement (competition binding) on T47-D or SK HEP-1 cells; details: relative to mEGF(33-42); 0.1 nM 125I-laminin, overnight 4° C.
T1 construct: endogenous in cells; host or cells: T47-D or SK HEP-1 cells (whole-cell suspension)
Method: ^125I-laminin was prepared using ^125I-labelled sodium iodide (Amersham, UK) and immobilised chloramine-T (Iodobeads; Pierce, Ill.). Prior to use, the beads were washed with 500 μl phosphate buffer (pH 6.5) to remove excess reagent from the support. These were then allowed to air dry and individual beads added to a solution of carrier free Na^125I, diluted with iodination buffer (phosphate buffer pH 7.4). The beads were allowed to equilibrate for 5 min.
Laminin (10 μg in 10 μl) was then diluted into the iodination buffer and the system incubated at 20° C. for 15 min. The solution was then removed from the reaction vessel and excess Na^125I and unincorporated ^125I2 separated from the iodinated protein by gel filtration on a GF-5 exclusion column (Pierce, Ill.). Iodinated laminin fractions were recovered at a specific activity of approximately 1.2 mCi/mg protein (864 Ci/mmol).
Near confluent cultures of T47-D or SK HEP-1 cells were removed from monolayer with 0.02% EGTA and passed through a G-25 syringe needle to produce single cell suspensions. Aliquots of each cell type (10^6 cells/ml) were dispensed into separate Ependorf tubes (1 ml each) and pelleted. The cells were then resuspended in 1 ml ice-cold RPMI (SK HEP-1) or DMEM (T47-D) containing 0.1% BSA and either laminin or synthetic peptide at the concentrations indicated. Iodinated laminin was then added to each cell suspension to give a final ^125I-laminin concentration of 0.1 nM (approximately 50,000 cpm). These mixtures were incubated overnight at 4° C.
The tubes were then microfuged at 10,000 g and the supernatant removed. After washing the pellet with 500 μl CFS, the remaining radioactivity was determined using a gamma radiation counter. Non-specific binding was determined by incubating cells with a 1000-fold molar excess of unlabelled laminin. All estimations were carried out in triplicate.
(§1) IC50 (concentration of unlabelled peptide required to produce 50% inhibition of radioligand binding) and EC50 (effective concentration for 50% inhibition of cell attachment) values were calculated using the Grafit curve-fitting programme (Erithacus Software, London, UK).

[2] = test system: Endothelial cells (SK HEP-1 and BRCE); experiment: Migration assay (colloidal gold track area); assay type: cell-based; details: endothelial cells, 18 h
Method: The method used was basically as described by Albrecht-Buehler (1977). Briefly, coverslips (22×22 mm) were treated in 5% detergent (7×; ICN Biomedicals) and washed in alcohol to remove grease. After drying, they were immersed in gelatin solution (Sigma, 300 Bloom; 0.5 g in 300 ml distilled H2O) for 10 min. The coverslips were then dried by placing in a 70° C. oven for 45 min.
Colloidal gold suspension was prepared by adding 11 ml distilled H2O and 6 ml Na2CO3 (36.5 mM) to 1.8 ml AuHCl4 (14.5 mM). The mixture was heated to 95° C. at which point 1.8 ml of freshly prepared 0.1% formaldehyde solution was added; the temperature was maintained at 95° C. A suspension of colloidal gold was formed which was brown to absorbed light and blue to transmitted light.
The gold suspension, was then added to petri dishes containing individual coverslips and the plates incubated at 37° C. for 45 min. After washing with CFS (3×4 ml) to remove unattached gold particles, the coverslips were transferred to 6-well cluster dishes and UV sterilised.
Endothelial cells (SK HEP-1 and BRCE) in culture media (0.3 ml) were seeded onto the coverslips at an approximate density of 5×10^3 cells per well. The cells were allowed to plate down for 2 h at 37° C. after which the treatments were added. Assay systems were maintained for a further 18 h after which the cells were fixed using 3% gluteraldehyde in cacodylate buffer (pH 7.2).
The assays were examined using a Leica DM1RB phase contrast microscope and Q500MC image analysis system incorporating a JVC TK-1280E colour camera (Leica, Milton Keynes, UK). The track images of at least 30 cells were videocaptured and the area (representing migration response) determined for each. Statistical analysis of these areas was then carried out using Macintosh Instat software to perform both Kruskal-Wallis analysis of variance and Mann-Whitney U-tests in order to compare the treatment groups with controls.

[3] = test system: cell attachment to laminin through the 67-LR (T-47D, SK HEP-1); experiment: Laminin attachment assay; assay type: cell-based, human; details: relative to mEGF(33-42)
Method: Non-tissue culture grade 96-well plates, coated with 2.5 μg murine laminin in 50 μl CFS per well, were air-dried overnight at room temperature. […] After rinsing with CFS (100 μl), the plastic was saturated with casein (0.2% in CFS). Plates were incubated at room temperature for 45 min then washed extensively with CFS (3×100 μl).
After removal of culture media, cells were detached from monolayers by the action of EGTA (0.02% in CFS) at 37° C. The cells were then centrifuged at 800 g for 2 min and the pellet resuspended in DMEM (T-47D) or RPMI (SK HEP-1).
Cells, at a population density of 10^6 cells/ml, were then aliquoted (1 ml) into microfuge tubes containing the individual peptide sequences and incubated for 1 h at 37° C. The cells (100 μl aliquots) were then added to the pre-coated multi-well plates and incubated for a further 60 min. Incubation media were removed and the wells washed with CFS (3×100 μl) to rid the plates of non-adherent cells.
Attached cell numbers were evaluated spectrophotometrically at 620 nm after fixing with 10% formaldehyde and staining with crystal violet.
as §1

[4] = test system: angiogenesis in the chick; details: shown previously; cited from earlier work
[5] = test system: angiogenesis in the chick; experiment: Chick angiogenesis model; assay type: in vivo; details: laminin-stimulated; model not stated at the place (Nelson et al 1995)
67 kDa laminin receptor = target: T2, 67 kDa laminin receptor (Homo sapiens, UniProt P08865); experiment: Cell attachment to biotinylated mEGF(33-42) with anti-laminin receptor or anti-EGF receptor antibodies; assay type: cell-based
T2 construct: endogenous in cells
Method: Briefly, 96-well plates were coated with 100 μl/well streptavidin (5 μg/ml in carbonate buffer pH 9.6) and following an overnight incubation at 37° C., wells were washed with CFS (3×100 μl) and the plastic blocked with casein (0.2% in CFS). The plates were then incubated at room temperature for 45 min and washed with CFS as previously detailed. Biotinylated mEGF(33-42) in CFS was then aliquoted into the wells (0.1 ml of 100 μM) and the plates incubated for 3 h at 37° C.
After a further block with 0.2% casein, the wells were washed with CFS (3×100 μl aliquots). Plates were kept at 4° C. and used within 2 h.
Cells were prepared as above and pre-incubated for 1 h at 37° C. with serial dilutions of anti-laminin receptor polyclonal (see below) or anti-EGF (R1) receptor monoclonal antibodies. Subsequent procedures were as detailed for the laminin attachment assay.

[6] = test system: Endothelial cells (SK HEP-1 and BRCE); details: shown previously; cited from earlier work
67-LR = target: T3, 67-LR (Homo sapiens, UniProt P08865); experiment: Peptide screening for receptor interaction, cell adhesion and motility properties; assay type: cell-based
T3 construct: endogenous in cells
Description: In addition, using residue exchange between the two peptides and molecular modelling to predict three-dimensional structure, we wished to further investigate the role of individual mEGF(33-42) residues in laminin antagonism. A logical series of peptides was synthesised and screened for receptor interaction, cell adhesion and motility properties (Table 1a and 1b).

| receptor affinity, 125I-laminin displacement (IC50), in words [1] | Compound | migration (motility) response: laminin agonist or antagonist [2] | inhibition of cell attachment (adhesion) to laminin (EC50), in words [3] | further results |
| --- | --- | --- | --- | --- |
| dramatic decrease in receptor affinity | AVIGYSGDRC [peptide VIII, alanine scan of mEGF(33-42): alanine for cysteine (P1)] | weak laminin agonist | parallel decrease in their ability to block adhesion to laminin | – |
| dramatic decrease in receptor affinity | CAIGYSGDRC [peptide VII, alanine scan of mEGF(33-42): Ala for Val] | – | parallel decrease in their ability to block adhesion to laminin | – |
| dramatic decrease in receptor affinity | CVAGYSGDRC [peptide VI, alanine scan of mEGF(33-42): Ala for Ile] | – | parallel decrease in their ability to block adhesion to laminin | – |

Second part, the compound before the results:

| Compound | receptor affinity, 125I-laminin displacement (IC50), in words [1] | migration (motility) response: laminin agonist or antagonist [2] | inhibition of cell attachment (adhesion) to laminin (EC50), in words [3] | further results |
| --- | --- | --- | --- | --- |
| CC[C@H](C)[C@H](NC(=O)[C@@H](NC(=O)[C@H](CSCNC(C)=O)NC(C)=O)C(C)C)C(=O)NCC(=O)N[C@@H](Cc1ccc(O)cc1)C(=O)N[C@@H](CO)C(=O)NCC(=O)N[C@@H](CC(=O)O)C(=O)N[C@@H](CCCNC(N)=O)C(=O)N[C@@H](CSCNC(C)=O)C(N)=O [peptide IV, AcC(Acm)-VIGYSGD-[Cit]-C-(Acm)-NH2] (Ac-C(Acm)VIGYSGD[Cit]C(Acm)-NH2) | increased both receptor binding and inhibition of attachment to laminin substrata | – | – | resistance to trypsin / trypsin-like proteases (trypsin-like proteases): resistant to cleavage by trypsin-like proteases |
| Acetyl-C-[S-Acm]-VIGYSGDR-C-[S-Acm]NH2 (Ac-C(Acm)VIGYSGDRC(Acm)-NH2) [mEGF(33-42), capped synthetic peptide of residues 33 to 42 of murine epidermal growth factor, 67LR antagonist] | equipotent | antagonist | – | EGF-stimulated angiogenic response in the early chick [4]: inhibit the EGF-stimulated angiogenic response; angiogenic effects of laminin [5]: inhibits the angiogenic effects of laminin; receptor that mediates the anti-angiogenic effects (67 kDa laminin receptor; 67-LR versus EGF receptor): mediated solely through the high affinity 67 kDa laminin receptor (67-LR) and not through the EGF receptor; binding to the 67 kDa laminin receptor (67 kDa laminin receptor; biotinylated derivative of the peptide on streptavidin plates): bound to the 67 kDa laminin receptor; basal and EGF-stimulated motility of primary and established endothelial cells [6]: blocking the basal and EGF-stimulated motility |
| CVIGYAGDRC [X, alanine scan of mEGF(33-42): Ala for Ser (P6)] | dramatic decrease in receptor affinity | – | parallel decrease in their ability to block adhesion to laminin | – |
| CVIGYSGDRA [peptide IX, alanine scan of mEGF(33-42): alanine for cysteine at P10] | retains both receptor binding and adhesion displacing activities | has the agonism of Lam.β-1(925-933) | retains both receptor binding and adhesion displacing activities | – |
| laminin | equipotent | – | – | – |
| mEGF(33-42) analogue, isoleucine (P6) for serine; acetyl-Cys(ACM)-Val-Ile-Gly-Tyr-Ile-Gly-Asp-Arg-Cys(ACM)-NH2 (Ac-C(Acm)VIGYIGDRC(Acm)-NH2; SMILES CC[C@H](C)[C@H](NC(=O)[C@H](Cc1ccc(O)cc1)NC(=O)CNC(=O)[C@@H](NC(=O)[C@@H](NC(=O)[C@H](CSCNC(C)=O)NC(C)=O)C(C)C)[C@@H](C)CC)C(=O)NCC(=O)N[C@@H](CC(=O)O)C(=O)N[C@@H](CCCNC(=N)N)C(=O)N[C@@H](CSCNC(C)=O)C(N)=O) [peptide I] | reduced receptor affinity | weak antagonist activities | both reduced receptor affinity and potency in displacement of cell adhesion to laminin | – |
| peptide II: mEGF(33-42) analogue, aspartate (P8) replaced with serine (CVIGYSGSRC) | – | – | – | biological function (receptor binding, adhesion, motility) (67-LR): complete loss of biological function |
| peptide III: mEGF(33-42) analogue with both isoleucine (P6) for serine and serine (P8) for aspartate (CVIGYIGSRC) | – | – | – | biological function (receptor binding, adhesion, motility) (67-LR): complete loss of biological function |
| peptide V: mEGF(33-42) analogue, tyrosine (P5) substituted with Tic-OH (CVIG[Tic‑OH]SGDRC; cysteine pairing not given here) | both receptor binding and adhesion responses were retained | agonist | both receptor binding and adhesion responses were retained | – |
